Results as given in US11932634B2 (Gilead Sciences, Inc., priority 2021, dated 2024).
pEC50, pIC50: −log10 of the molar value.

What was measured:
human DGKα = biological target: T1, human DGKα (Homo sapiens, UniProt P23743); experiment: DGKα Biochemical Activity Assay (ADP-Glo);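 further: recombinant enzyme converting diacylglycerol in lipid micelles with ATP, ADP formed detected by luminescence, IC50 from a four-parameter nonlinear fit, geometric mean across experiments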
T1 construct: purchased Carna Biosciences'; inferred from the same paragraph's 'obtained from Carna Biosciences')
Source text: Alternatively, the enzymatic activity of human DGKα was monitored in a biochemical assay in the presence or absence of compounds and using micelles containing 18:1 Diacylglycerol (DAG), 16:0-18:1 PS (POPS) and Octylglucoside as substrate. DGKα activity led to conversion of DAG and ATP to Phosphatidic Acid (PA) and ADP. Levels of ADP were monitored by bioluminescence using the ADP-Glo Kinase Assay (Promega) and were indicative of DGKα activity.
Ten nanoliters of test compound dissolved in DMSO at various concentrations were dispensed into a 384-well low volume nonbinding service white plates (Corning #3824) using a Labcyte Echo instrument. Recombinant DGKα Biosciences) in assay buffer (5 μL in 50 mM MOPS [3-(N-morpholino) propanesulfonic acid], pH 7.2; 0.0025% Triton X-100; 1 mM dithiothreitol; 5 mM MgCl2, 200 μM ATP) was added to the compound-containing plate and was incubated for 15 minutes at 25° C. A substrate solution (5 μL in 1.7 mM 1,2-dioleoyl-sn-glycerol [18:1 DAG], 13.5 mM 1-palmitoyl-2-oleoyl-sn-glycero-3-phospho-L-serine [16:0-18:1 PS](POPS), 2 μM CaCl2), 100 mM Octylglucoside (OG), 1 mM DTT) (obtained from Carna Biosciences) diluted in DGK ALPHA assay buffer was then added to start the reaction. Final concentrations were 1 nM DGKα, 100 μM ATP, 1 μM calcium chloride, 0.85 mM 1,2-dioleoyl-sn-glycerol (18:1 DAG), 6.75 mM 1-palmitoyl-2-oleoyl-sn-glycero-3-phospho-L-serine (16:0-18:1 PS) (POPS), 1 μM CaCl2), 50 mM Octylglucoside (OG) and 5 mM MgCl2. The reaction mixture was incubated at 25° C. for 1 hour. ADP-Glo Reagent (10 μL, 10 mM Mg added) provided by the kit was added to each well and incubated at 25° C. for 40 minutes. Then, 20 μL of Kinase Detection Reagent was added and incubated at 25° C. for 40 minutes. Luciferase activity of each well was measured via luminescence on an Envision plate reader (PerkinElmer).
Least squares curve fittings were performed using a four-parameter variable slope nonlinear regression model. […] IC50 values from multiple experiments were averaged by geometric mean and the standard deviation was calculated.

[1] = system: Jurkat NFκB-luciferase cells; experiment: Jurkat NFκB-Luciferase Assay; type: cell-based; details: Homo sapiens; Jurkat NFκB-luciferase cells activated with anti-CD3 antibody (OKT3), 2.5 hrs at 37° C., One-Glo Ex; geometric mean; read-out: DGK NFKb Luciferase EC50;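 further: bioluminescence read-out normalized to DMSO basal activation and to maximum enhancement at 1 µM compound, rising signal indicating stronger T-cell activation through DGKα inhibition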
Procedure: The activity of compounds was tested in a cell based NFκB reporter assay. Jurkat cells that are stably expressing a luciferase reporter construct under the transcriptional control of a NFκB reporter element were activated with an anti-CD3 antibody and luciferase levels were measured with a bioluminescence readout.
The day after, the excess antibody was washed out five times with 100 ul/well of assay medium (RPMI supplemented with 10% fetal bovine serum) using a Biotek EL406 instrument and leaving 20 µl of residual volume in each well. Jurkat NFκB-luciferase cells (Promega #) were harvested and diluted to 1 million cells/ml in assay medium. Sixty nanoliters of test compound dissolved in DMSO at various concentrations were dispensed into 384-well v-bottom polypropylene plates (Greiner) using a Labcyte Echo instrument. Thirty microliters of medium containing the Jurkat NFκB-luciferase cells were then dispensed using a Biotek MicroFlo instrument in each well of the compound-containing plate. The medium/cell/compound mixture was mixed with a Bravo instrument and 20 ul/well of the mixture was transferred to the anti-CD3-coated plate. The assay mixture was then incubated for 2.5 hrs at 37° C. followed by equilibration at 25° C. for 30 min. Forty microliters of One-Glo Ex (Promega) was then added to the assay mixture and luciferase activity was read on a Envision plate reader 7 minutes later.
Bioluminescence data were normalized based on maximum enhancement (1 micromolar of compound) and on basal activation (DMSO) controls. Least squares curve fittings were performed using a four-parameter variable slope nonlinear regression model. […] EC50 values from multiple experiments were averaged by geometric mean and the standard deviation was calculated.

T1 sequence (P23743 whole entry): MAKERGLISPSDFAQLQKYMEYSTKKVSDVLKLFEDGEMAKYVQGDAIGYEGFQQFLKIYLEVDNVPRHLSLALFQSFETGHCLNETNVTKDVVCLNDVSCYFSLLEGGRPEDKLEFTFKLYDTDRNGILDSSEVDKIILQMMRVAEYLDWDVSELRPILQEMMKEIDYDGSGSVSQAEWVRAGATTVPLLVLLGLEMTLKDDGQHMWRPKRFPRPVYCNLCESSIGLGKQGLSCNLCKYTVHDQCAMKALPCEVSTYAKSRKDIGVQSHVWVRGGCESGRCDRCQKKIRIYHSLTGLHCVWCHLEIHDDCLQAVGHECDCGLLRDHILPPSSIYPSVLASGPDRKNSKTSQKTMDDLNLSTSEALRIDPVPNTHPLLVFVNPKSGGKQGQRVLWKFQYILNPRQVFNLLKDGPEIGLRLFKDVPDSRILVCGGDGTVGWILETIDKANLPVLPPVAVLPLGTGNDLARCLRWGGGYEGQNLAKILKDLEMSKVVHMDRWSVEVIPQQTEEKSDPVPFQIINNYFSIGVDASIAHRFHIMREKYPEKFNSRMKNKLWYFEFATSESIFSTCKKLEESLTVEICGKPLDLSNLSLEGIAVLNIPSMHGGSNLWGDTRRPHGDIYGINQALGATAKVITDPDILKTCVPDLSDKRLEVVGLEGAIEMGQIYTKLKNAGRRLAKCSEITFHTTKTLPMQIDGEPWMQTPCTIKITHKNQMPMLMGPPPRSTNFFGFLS

Structure (SMILES)	pIC50 (human DGKα)	pEC50 [1]
CN(c1cccc(-c2ccc(C3CC3)cc2)c1)c1nc(=O)[nH]c2cc(Cl)ccc12 [Example 1, 7-chloro-4-[3-(4-cyclopropylphenyl)-N-methyl-anilino]-1H-quinazolin-2-one]	6.78	8.87
CN(c1cccc(-c2ccc(C3CC3)cc2)c1)c1nc(=O)n(C)c2cc(Cl)ccc12 [Example 2, 7-chloro-4-[3-(4-cyclopropylphenyl)-N-methyl-anilino]-1-methyl-quinazolin-2-one]	7.82	9.32
CN(c1cccc(C#CC(C)(C)O)c1)c1nc(=O)[nH]c2cc(Cl)ccc12 [Example 3, 7-chloro-4-[3-(3-hydroxy-3-methyl-but-1-ynyl)-N-methyl-anilino]-1H-quinazolin-2-one]	7.02	7.97
CN(c1cccc(C#CC(C)(C)O)c1)c1nc(=O)n(C)c2cc(Cl)ccc12 [Example 4, 7-chloro-4-[3-(3-hydroxy-3-methyl-but-1-ynyl)-N-methyl-anilino]-1-methyl-quinazolin-2-one]	7.77	8.34
CN(c1cccc(C#CC2(C(F)(F)F)CC2)c1)c1nc(=O)[nH]c2cc(Cl)ccc12 [Example 5, 7-chloro-4-[N-methyl-3-[2-[1-(trifluoromethyl)cyclopropyl]ethynyl]anilino]-1H-quinazolin-2-one]	7.27	8.99
CN(c1cccc(-c2ccc(N3CCCC3)nc2)c1)c1nc(=O)[nH]c2cc(Cl)ccc12 [Example 6, 7-chloro-4-[N-methyl-3-(6-pyrrolidin-1-yl-3-pyridyl)anilino]-1H-quinazolin-2-one]	7.07	8.65
CN(c1cccc(-c2ccc(N3CCCC3)nc2)c1)c1nc(=O)n(C)c2cc(Cl)ccc12 [Example 7, 7-chloro-1-methyl-4-[N-methyl-3-(6-pyrrolidin-1-yl-3-pyridyl)anilino]quinazolin-2-one]	7.75	9.17
CN(c1cccc(C#CC2(C(F)(F)F)CC2)c1)c1nc(=O)n(C)c2cc(Cl)ccc12 [Example 8, 7-chloro-1-methyl-4-[N-methyl-3-[2-[1-(trifluoromethyl)cyclopropyl]ethynyl]anilino]quinazolin-2-one]	7.90	9.31
CN(c1cccc(-c2ccc(N3CCCS3(=O)=O)cc2)c1)c1nc(=O)[nH]c2cc(Cl)ccc12 [Example 9, 7-chloro-4-[3-[4-(1,1-dioxo-1,2-thiazolidin-2-yl)phenyl]-N-methyl-anilino]-1H-quinazolin-2-one]	7.48	8.30
CN(c1cccc(-c2ccc(N3CCCS3(=O)=O)cc2)c1)c1nc(=O)n(C)c2cc(Cl)ccc12 [Example 10, 7-chloro-4-[3-[4-(1,1-dioxo-1,2-thiazolidin-2-yl)phenyl]-N-methyl-anilino]-1-methyl-quinazolin-2-one]	7.86	8.82
CN(c1cccc(-c2cnc(C3CC3)cn2)c1)c1nc(=O)n(C)c2cc(Cl)ccc12 [Example 11, 7-chloro-4-[3-(5-cyclopropylpyrazin-2-yl)-N-methyl-anilino]-1-methyl-quinazolin-2-one]	8.40	9.15
CN(c1cncc(C#CC2(C(F)(F)F)CC2)n1)c1nc(=O)n(C)c2cc(Cl)ccc12 [Example 12, 7-chloro-1-methyl-4-[methyl-[6-[2-[1-(trifluoromethyl)cyclopropyl]ethynyl]pyrazin-2-yl]amino]quinazolin-2-one]	8.54	8.98
CN(c1cncc(C#CC2(C(F)(F)F)CC2)n1)c1nc(=O)[nH]c2cc(Cl)ccc12 [Example 13, 7-chloro-4-[methyl-[6-[2-[1-(trifluoromethyl)cyclopropyl]ethynyl]pyrazin-2-yl]amino]-1H-quinazolin-2-one]	7.69	8.94
CN(c1cc(F)cc(C#CC2(C(F)(F)F)CC2)c1)c1nc(=O)[nH]c2cc(Cl)ccc12 [Example 14, 7-chloro-4-[3-fluoro-N-methyl-5-[2-[1-(trifluoromethyl)cyclopropyl]ethynyl]anilino]-1H-quinazolin-2-one]	6.86	9.10
[2H]C([2H])([2H])n1c(=O)nc(N(C)c2cc(F)cc(C#CC3(C(F)(F)F)CC3)c2)c2ccc(Cl)cc21 [Example 15, 7-chloro-4-[3-fluoro-N-methyl-5-[2-[1-(trifluoromethyl)cyclopropyl]ethynyl]anilino]-1-(trideuteriomethyl)quinazolin-2-one]	7.56	9.25
O=c1nc(N(CC(F)F)c2cc(F)cc(C#CC3(C(F)(F)F)CC3)c2)c2c(F)cccc2[nH]1 [Example 16, 4-[N-(2,2-difluoroethyl)-3-fluoro-5-[2-[1-(trifluoromethyl)cyclopropyl]ethynyl]anilino]-5-fluoro-1H-quinazolin-2-one]	6.60	8.93
O=c1nc(N(CC(F)F)c2cc(F)cc(-c3cnc(C4CC4)cn3)c2)c2c(F)cccc2[nH]1 [Example 17, 4-[3-(5-cyclopropylpyrazin-2-yl)-N-(2,2-difluoroethyl)-5-fluoro-anilino]-5-fluoro-1H-quinazolin-2-one]	7.52	8.91

Structure (SMILES)	pIC50 (human DGKα)	pEC50 [1]
O=c1nc(N(CC(F)F)c2cc(F)cc(-c3ccc(C(F)F)nc3)c2)c2c(F)cccc2[nH]1 [Example 18, 4-[N-(2,2-difluoroethyl)-3-[6-(difluoromethyl)-3-pyridyl]-5-fluoro-anilino]-5-fluoro-1H-quinazolin-2-one]	7.26	8.58
O=c1nc(N2CCCc3c(C#CC4(C(F)(F)F)CC4)cccc32)c2c(F)cccc2[nH]1 [Example 19, 5-fluoro-4-[5-[2-[1-(trifluoromethyl)cyclopropyl]ethynyl]-3,4-dihydro-2H-quinolin-1-yl]-1H-quinazolin-2-one]	7.20	9.20
CCn1c(=O)nc(N2CCCc3c(C#CC4(C(F)(F)F)CC4)cccc32)c2c(F)cccc21 [Example 20, 1-ethyl-5-fluoro-4-[5-[2-[1-(trifluoromethyl)cyclopropyl]ethynyl]-3,4-dihydro-2H-quinolin-1-yl]quinazolin-2-one]	6.53	9.06
[2H]C([2H])([2H])n1c(=O)nc(N2CCCc3c(C#CC4(C(F)(F)F)CC4)cccc32)c2c(F)cccc21 [Example 21, 5-fluoro-1-(trideuteriomethyl)-4-[5-[2-[1-(trifluoromethyl)cyclopropyl]ethynyl]-3,4-dihydro-2H-quinolin-1-yl]quinazolin-2-one]	7.95	9.63
[2H]C([2H])([2H])n1c(=O)nc(N(CC(F)F)c2cc(F)cc(C#CC3(C(F)(F)F)CC3)c2)c2c(F)cccc21 [Example 22, 4-[N-(2,2-difluoroethyl)-3-fluoro-5-[2-[1-(trifluoromethyl)cyclopropyl]ethynyl]anilino]-5-fluoro-1-(trideuteriomethyl)quinazolin-2-one]	7.25	8.79
O=c1nc(N(CC(F)(F)F)c2cccc(C#CC3(C(F)(F)F)CC3)c2)c2ccc(Cl)cc2[nH]1 [Example 24, 7-chloro-4-[N-(2,2,2-trifluoroethyl)-3-[2-[1-(trifluoromethyl)cyclopropyl]ethynyl]anilino]-1H-quinazolin-2-one]	6.76	8.62
[2H]C([2H])([2H])n1c(=O)nc(N(CC(F)(F)F)c2cccc(C#CC3(C(F)(F)F)CC3)c2)c2ccc(Cl)cc21 [Example 25, 7-chloro-1-(trideuteriomethyl)-4-[N-(2,2,2-trifluoroethyl)-3-[2-[1-(trifluoromethyl)cyclopropyl]ethynyl]anilino]quinazolin-2-one]	7.23	9.39
O=c1nc(N(CC(F)F)c2cc(F)cc(C#CC3(C(F)(F)F)CC3)c2)c2ccc(Cl)cc2[nH]1 [Example 26, 7-chloro-4-[N-(2,2-difluoroethyl)-3-fluoro-5-[2-[1-(trifluoromethyl)cyclopropyl]ethynyl]anilino]-1H-quinazolin-2-one]	6.50	8.97
O=c1nc(N(CC(F)(F)F)c2cc(F)cc(C#CC3(C(F)(F)F)CC3)c2)c2cc(F)ccc2[nH]1 [Example 27, 6-fluoro-4-[3-fluoro-N-(2,2,2-trifluoroethyl)-5-[2-[1-(trifluoromethyl)cyclopropyl]ethynyl]anilino]-1H-quinazolin-2-one]	7.01	8.49
Cn1c(=O)nc(N(CC(F)F)c2cc(F)cc(C#CC3(C(F)(F)F)CC3)c2)c2ccc(Cl)cc21 [Example 28, 7-chloro-4-[N-(2,2-difluoroethyl)-3-fluoro-5-[2-[1-(trifluoromethyl)cyclopropyl]ethynyl]anilino]-1-methyl-quinazolin-2-one]	6.77	8.94
O=c1nc(N(CC(F)(F)F)c2cc(F)cc(C#CC3(C(F)(F)F)CC3)c2)c2ccc(Cl)cc2[nH]1 [Example 29, 7-chloro-4-[3-fluoro-N-(2,2,2-trifluoroethyl)-5-[2-[1-(trifluoromethyl)cyclopropyl]ethynyl]anilino]-1H-quinazolin-2-one]	6.07	8.73
Cn1c(=O)nc(N(CC(F)(F)F)c2cc(F)cc(C#CC3(C(F)(F)F)CC3)c2)c2cc(F)ccc21 [Example 30, 6-fluoro-4-[3-fluoro-N-(2,2,2-trifluoroethyl)-5-[2-[1-(trifluoromethyl)cyclopropyl]ethynyl]anilino]-1-methyl-quinazolin-2-one]	7.57	8.71
O=c1nc(N(CC(F)F)c2ccnc(C#CC3(C(F)(F)F)CC3)c2)c2c(F)c(F)ccc2[nH]1 [Example 78]	–	8.59
O=c1nc(N2CCOCc3c(C#CC4(C(F)(F)F)CC4)cccc32)c2c(F)cccc2[nH]1 [Example 90]	–	9.35
[2H]C([2H])([2H])n1c(=O)nc(N2CCOCc3c(C#CC4(C(F)(F)F)CC4)cccc32)c2c(F)c(F)ccc21 [Example 96]	–	9.25
O=c1nc(N2CCCCc3c(C#CC4(C(F)(F)F)CC4)cncc32)c2c(F)cccc2[nH]1 [Example 153]	–	8.79
CC1(C#Cc2cccc3c2COCCN3c2nc(=O)[nH]c3cccc(F)c23)CC1 [Example 154]	–	9.11
